The values below come from paper PMC8306828 (International Journal of Molecular Sciences, 2021).

This assay has as its target T1, human topoisomerase I (Homo sapiens, UniProt P11387).
T1 construct: purchased TopoGen, Buena Vista, CO, USA
T1 sequence (P11387 1-765): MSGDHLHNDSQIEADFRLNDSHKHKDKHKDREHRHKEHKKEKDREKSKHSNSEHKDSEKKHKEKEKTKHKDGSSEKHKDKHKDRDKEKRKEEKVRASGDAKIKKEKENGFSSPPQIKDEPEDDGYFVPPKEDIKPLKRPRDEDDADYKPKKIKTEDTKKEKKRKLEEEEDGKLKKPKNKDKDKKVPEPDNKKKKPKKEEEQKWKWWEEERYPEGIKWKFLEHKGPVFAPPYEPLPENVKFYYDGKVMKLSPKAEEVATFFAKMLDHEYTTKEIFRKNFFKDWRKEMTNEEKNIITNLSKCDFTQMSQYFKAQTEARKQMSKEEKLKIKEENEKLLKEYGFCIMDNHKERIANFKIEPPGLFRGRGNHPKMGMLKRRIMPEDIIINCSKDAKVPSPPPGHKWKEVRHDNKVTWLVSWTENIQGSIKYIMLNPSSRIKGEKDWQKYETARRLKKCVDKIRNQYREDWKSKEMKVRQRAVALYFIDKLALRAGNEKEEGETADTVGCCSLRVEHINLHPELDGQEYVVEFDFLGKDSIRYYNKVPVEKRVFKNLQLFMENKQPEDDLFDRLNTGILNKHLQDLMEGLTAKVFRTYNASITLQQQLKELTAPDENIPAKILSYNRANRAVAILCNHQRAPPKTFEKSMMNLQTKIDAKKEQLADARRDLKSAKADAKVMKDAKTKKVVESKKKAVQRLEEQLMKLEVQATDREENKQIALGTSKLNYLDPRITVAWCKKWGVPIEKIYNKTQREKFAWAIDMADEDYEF
As to the kind of experiment: Topoisomerase I drug screening (plasmid based), gel electrophoresis. The class given is biochemical. The conditions noted are these: scDNA + topo1; tested compounds 10-20 µM, camptothecin 100 µM.

Description: The test procedure was carried out according to the manufacturer′s instructions (Topoisomerase I Drug Screening Kit(plasmid based) TopoGen/Topoisomerase II Drug Screening Kit (plasmid based) (TopoGen, Buena Vista, CO, USA). A reaction mixture with appropriate concentrations of water and buffer and 1–0.5 mL of DNA (plasmid) was prepared. Then, the tested compounds dissolved in DMSO were added. A solvent control test was also performed. Finally, an enzyme in the indicated amount was added to the mixture. The whole was incubated at 37 °C for 30 min. Then, the reaction was stopped by adding 2 μL of detergent-SDS (sodium dodecyl sulfate). Proteinase K solution (50 μg/mL) was then added and incubated at 37 °C for 15 min. After that time, a loading buffer (bromophenol blue and glycerol) was added to the samples and then applied to a 1% agarose gel. Electrophoresis was carried out in TAE (Tris Acetate-EDTA) buffer, which was obtained by mixing 40 mM Tris Acetate, 1 mM EDTA, and diluting with water. It was carried out for 4–5 h at 2 V/cm. For the Topo I assay, two types of gel were prepared: non-EB (Figure 8A) and EB gel (Figure 8B). Non-EB gels were stained with EB (0.5 ug/mL) for 15–30 min and then destained in water or buffer for 15 min prior to photodocumentation. […]

For `CC[C@@]1(O)C(=O)OCc2c1cc1n(c2=O)Cc2cc3ccccc3nc2-1` [camptothecin], the “inhibition of topoisomerase I / DNA band pattern” value is “presence of open circular DNA”.
